# Source: ChEMBL document CHEMBL1201862, “PubChem BioAssay data set” (2004)
#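 Test compounds were applied to cells in 96-well plates for 48 hours at 5 doses. The concentration for 50% growth inhibition is given as GI50.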 The source made the active and inactive calls. Rule as the data show it: active = GI50 up to about 1.1 µM and inactive = higher.
# What was measured:
# Experiment in all cases: growth of human tumour cells (NCI), 48 h
# [1] = test system: A549
# [2] = test system: MCF7
# [3] = test system: LOX IMVI
# [4] = test system: EKVX
# [5] = test system: A498
# [6] = test system: OVCAR-5
# [7] = test system: T47D
# [8] = test system: NCI/ADR-RES
# [9] = test system: UACC-62
# [10] = test system: HCT-116
# [11] = test system: SR
# [12] = test system: UACC-257
# [13] = test system: SF-539
# [14] = test system: SF-268
# [15] = test system: RPMI-8226
# [16] = test system: CAKI-1
# [17] = test system: SN12C
# [18] = test system: SK-MEL-28
# [19] = test system: HCT-15
# [20] = test system: CCRF-CEM
# [21] = test system: MOLT-4
# [22] = test system: 786-0
# [23] = test system: SNB-19
# [24] = test system: IGROV-1
# [25] = test system: PC-3
# [26] = test system: MDA-N
# [27] = test system: NCI-H23
# [28] = test system: KM12
# [29] = test system: SK-MEL-2
# [30] = test system: MDA-MB-435
# [31] = test system: HCC 2998
# [32] = test system: NCI-H460
# [33] = test system: OVCAR-8
# [34] = test system: HOP-92
# [35] = test system: COLO 205
# [36] = test system: MDA-MB-231
# [37] = test system: ACHN
# [38] = test system: NCI-H522
# [39] = test system: K562
# [40] = test system: DU-145
# [41] = test system: SK-MEL-5
# [42] = test system: OVCAR-3
# [43] = test system: BT-549
# [44] = test system: SK-OV-3
# [45] = test system: RXF 393
# [46] = test system: HL-60
# [47] = test system: OVCAR-4
# [48] = test system: HOP-62
# [49] = test system: NCI-H226
# [50] = test system: TK-10
# [51] = test system: UO-31
# [52] = test system: HT-29
# [53] = test system: U-251
# [54] = test system: SF-295
# [55] = test system: M14
# [56] = test system: SW-620
# [57] = test system: SNB-75
# [58] = test system: Malme-3M
# [59] = test system: Hs-578T
smiles,measurement,setting,value
O=S(=O)(CC(Cl)c1ccccc1)c1nc2ccccc2s1 (stereo not drawn),GI50,[1],19.5 µM (inactive)
same,GI50,[2],7.48 µM (inactive)
same,GI50,[3],1.5 µM (inactive)
same,GI50,[4],15.8 µM (inactive)
same,GI50,[5],20 µM (inactive)
same,GI50,[6],13.7 µM (inactive)
same,GI50,[7],13.2 µM (inactive)
same,GI50,[8],10.7 µM (inactive)
same,GI50,[9],15.1 µM (inactive)
same,GI50,[10],9.86 µM (inactive)
same,GI50,[11],1.67 µM (inactive)
same,GI50,[12],7.8 µM (inactive)
same,GI50,[13],10.2 µM (inactive)
same,GI50,[14],13.6 µM (inactive)
same,GI50,[15],3.35 µM (inactive)
same,GI50,[16],2.24 µM (inactive)
same,GI50,[17],10.2 µM (inactive)
same,GI50,[18],15.7 µM (inactive)
same,GI50,[19],8.02 µM
same,GI50,[20],1.7 µM (inactive)
same,GI50,[21],2.81 µM (inactive)
same,GI50,[22],6.95 µM (inactive)
same,GI50,[23],17.8 µM (inactive)
same,GI50,[24],9.12 µM (inactive)
same,GI50,[25],16 µM (inactive)
same,GI50,[26],6.22 µM (inactive)
same,GI50,[27],8.38 µM (inactive)
same,GI50,[28],17.2 µM (inactive)
same,GI50,[29],17.8 µM (inactive)
same,GI50,[30],7.71 µM (inactive)
same,GI50,[31],17.5 µM (inactive)
same,GI50,[32],19.7 µM (inactive)
same,GI50,[33],7.96 µM (inactive)
same,GI50,[34],2.88 µM (inactive)
same,GI50,[35],7.93 µM (inactive)
same,GI50,[36],14.1 µM (inactive)
same,GI50,[37],15.5 µM (inactive)
same,GI50,[38],1.85 µM (inactive)
same,GI50,[39],2.81 µM (inactive)
same,GI50,[40],16.5 µM (inactive)
same,GI50,[41],4.01 µM (inactive)
same,GI50,[42],8.53 µM (inactive)
same,GI50,[43],2.98 µM (inactive)
same,GI50,[44],18.7 µM (inactive)
same,GI50,[45],15 µM (inactive)
same,GI50,[46],2.11 µM (inactive)
same,GI50,[47],19.8 µM (inactive)
same,GI50,[48],23.1 µM (inactive)
same,GI50,[49],8.11 µM (inactive)
same,GI50,[50],19.5 µM (inactive)
same,GI50,[51],15.4 µM (inactive)
same,GI50,[52],5.42 µM (inactive)
same,GI50,[53],12.5 µM (inactive)
same,GI50,[54],17.9 µM (inactive)
same,GI50,[55],2.29 µM (inactive)
same,GI50,[56],5.2 µM (inactive)
same,GI50,[57],14.5 µM (inactive)
same,GI50,[58],9.16 µM (inactive)
same,GI50,[59],27.6 µM (inactive)
O=S(=O)(O)CCCc1cccc2ccccc12,GI50,[1],> 100 µM (inactive)
same,GI50,[2],> 100 µM (inactive)
same,GI50,[3],> 100 µM (inactive)
same,GI50,[4],> 100 µM (inactive)
same,GI50,[5],> 100 µM (inactive)
same,GI50,[6],> 100 µM (inactive)
same,GI50,[7],> 100 µM (inactive)
same,GI50,[8],> 100 µM (inactive)
same,GI50,[9],> 100 µM (inactive)
same,GI50,[10],> 100 µM (inactive)
same,GI50,[11],> 100 µM (inactive)
same,GI50,[12],> 100 µM (inactive)
same,GI50,[13],> 100 µM (inactive)
same,GI50,[14],> 100 µM (inactive)
same,GI50,[15],> 100 µM (inactive)
same,GI50,[16],> 100 µM (inactive)
same,GI50,[17],> 100 µM (inactive)
same,GI50,[18],> 100 µM (inactive)
same,GI50,[19],> 100 µM
same,GI50,[20],> 100 µM (inactive)
same,GI50,[21],> 100 µM (inactive)
same,GI50,[22],> 100 µM (inactive)
same,GI50,[23],> 100 µM (inactive)
same,GI50,[24],> 100 µM (inactive)
same,GI50,[25],> 100 µM (inactive)
same,GI50,[26],> 100 µM (inactive)
same,GI50,[27],> 100 µM (inactive)
same,GI50,[28],> 100 µM (inactive)
same,GI50,[29],> 100 µM (inactive)
same,GI50,[30],> 100 µM (inactive)
same,GI50,[31],> 100 µM (inactive)
same,GI50,[32],> 100 µM (inactive)
same,GI50,[33],> 100 µM (inactive)
same,GI50,[34],> 100 µM (inactive)
same,GI50,[35],> 100 µM (inactive)
same,GI50,[36],> 100 µM (inactive)
same,GI50,[37],> 100 µM (inactive)
same,GI50,[38],> 100 µM (inactive)
same,GI50,[39],> 100 µM (inactive)
same,GI50,[40],> 100 µM (inactive)
same,GI50,[41],> 100 µM (inactive)
same,GI50,[42],> 100 µM (inactive)
same,GI50,[43],> 100 µM (inactive)
same,GI50,[44],> 100 µM (inactive)
same,GI50,[45],> 100 µM (inactive)
same,GI50,[46],31.3 µM (inactive)
same,GI50,[47],> 100 µM (inactive)
same,GI50,[48],> 100 µM (inactive)
same,GI50,[49],> 100 µM (inactive)
same,GI50,[50],> 100 µM (inactive)
same,GI50,[51],> 100 µM (inactive)
same,GI50,[52],> 100 µM (inactive)
same,GI50,[53],> 100 µM (inactive)
same,GI50,[54],> 100 µM (inactive)
same,GI50,[55],> 100 µM (inactive)
same,GI50,[56],> 100 µM (inactive)
same,GI50,[57],> 100 µM (inactive)
same,GI50,[58],> 100 µM (inactive)
same,GI50,[59],> 100 µM (inactive)
